Assay results: patent US5571819A, “Imidazopyridines as muscarinic agents” (priority 1994, dated 1996)
Like-named read-outs stand apart in the source and are kept apart here.

What was measured:
[1] = molecular target: T1, ml receptors (muscarinic receptor subtypes) (Homo sapiens, UniProt P11229); assay: biochemical; assay type: binding
T1 sequence (P11229 1-460): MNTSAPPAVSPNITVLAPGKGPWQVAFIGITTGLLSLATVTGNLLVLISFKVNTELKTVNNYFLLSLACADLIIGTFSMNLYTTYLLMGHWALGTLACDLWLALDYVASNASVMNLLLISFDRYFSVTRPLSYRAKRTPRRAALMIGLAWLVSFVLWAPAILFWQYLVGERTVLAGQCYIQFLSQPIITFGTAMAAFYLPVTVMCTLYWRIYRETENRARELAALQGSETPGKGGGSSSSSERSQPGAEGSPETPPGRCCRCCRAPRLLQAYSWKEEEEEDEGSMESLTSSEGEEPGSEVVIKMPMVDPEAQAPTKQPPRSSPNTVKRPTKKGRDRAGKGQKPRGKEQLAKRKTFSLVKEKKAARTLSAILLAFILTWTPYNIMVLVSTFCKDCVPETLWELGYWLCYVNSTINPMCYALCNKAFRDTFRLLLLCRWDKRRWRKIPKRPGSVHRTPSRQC

[2] = molecular target: T2, M1 acetylcholine receptors (Homo sapiens, UniProt P11229); assay: Stimulation of phosphoinositide (PI) hydrolysis in CHO cells expressing M1 acetylcholine receptors; assay type: cell-based; details: 1 h, read-out: % PI Hydrolysis ml receptors in CHO cells maximum %, carbachol = 100%
T2 sequence (P11229 1-460): T1 sequence (P11229 1-460)

[3] = tested on: patients with mild to moderate Alzheimer's Disease; details: cited from earlier work; for improvement in memory in patients: mild to moderate Alzheimer's Disease
[4] = in vivo; cited from earlier work
[5] = read-out: ml 3H QNB Binding in CHO cells Ki, [3H]QNB 0.23 nM, 37 °C, 1 hour, CHO cells, ml
[6] = ml 3H QNB Binding in CHO cells Ki (μM), [3H]QNB 0.23 nM, 37 °C, 1 hour, CHO cells, ml

Structure (SMILES)	Ki [1, 6] [µM]	other results
Cn1cnc2c(O[C@@H]3CN4CC[C@@H]3C4)nccc21 (relative stereo) [Example 4, (exo)-4-(1-Aza-bicyclo[2,2,1]hept-3-yloxy)-1-methyl-1H-imidazo[4,5-c]pyridine]	–	Ki [1, 5]: 20.6 µM
Cn1c(C2(O)CN3CCC2CC3)nc2ncccc21 (stereo not drawn) [Example 13, 3-(1-Methyl-1H-imidazo[4,5-b]pyridin-2-yl)-1-aza-bicyclo[2.2.2]octan-3-ol]	–	Ki [1, 5]: 1.42 µM
Cn1cnc2c(O[C@H]3CN4CC[C@@H]3C4)nccc21 (relative stereo) [Example 1, endo-4-(1-Aza-bicyclo[2.2.1]hept-3-yloxy)-1-methyl-1H-imidazo[4,5-c]pyridine]	19.3	Emax [2]: 21.7%
OC1(c2nc3c(Cl)nccc3n2Cc2ccccc2)CN2CCC1CC2 (stereo not drawn) [Example 14, 3-(1-Benzyl-4-chloro-1H-imidazo[4,5-c]pyridin-2-yl)-1-azabicyclo[2.2.2]octan-3-ol]	1.65	–
c1ccc(Cn2cnc3c(OC4CN5CCC4CC5)nccc32)cc1 (single isomer, unassigned) [Example 7, (--)-3-(1-Benzyl-1H-imidazo[4,5-c]pyridin-4-yloxy)-1-aza-bicyclo[2.2.2]octane]	17.6	–
Cn1cnc2c(O[C@H]3CN4CC[C@@H]3C4)ncnc21 (relative stereo) [Example 9, endo-6-(1Aza-bicyclo[2.2,1]hept-3-yloxy)-9-methylpurine]	27	–
Cn1cnc2c(O[C@@H]3CN4CC[C@@H]3C4)ncnc21 (relative stereo) [Example 10, exo-6-(1Aza-bicyclo[2,2.1]hept-3-yloxy)-9-methylpurine]	17.1	–
Nc1c2c(nc3ccccc13)CCCC2 [tacrine]	–	adverse side effects ([3]; especially at the higher doses): adverse side effects especially at the higher doses where it is most effective; improvement in memory in patients [3]: improvement in memory can be shown in patients with mild to moderate Alzheimer's Disease
COC(=O)C1=CCCN(C)C1 [arecoline]	–	improvement in memory in patients [3]: memory improvement in patients with mild to moderate Alzheimer's Disease; half-life [4]: short half-life
c1ccc(Cn2cnc3c(OC4CN5CCC4CC5)nccc32)cc1 (stereo not drawn) [Example 5, 3-(1-Benzyl-1H-imidazo[4,5-c]pyridin-4-yloxy)-1-aza-bicyclo[2.2.2]octane]	3.85	–
Cn1cnc2c(O[C@H]3CN4CC[C@@H]3C4)nccc21 (single isomer, unassigned) [Example 3, (-)-endo-4-(1-Aza-bicyclo[2.2.1]hept-3-yloxy)-1-methyl-1H-imidazo[4,5-c]pyridine]	14.2	Emax [2]: 26.2%
Cn1cnc2c(OCC3CN4CCC3CC4)nccc21 (stereo not drawn) [Example 8, 3-(1-Methyl-1H-imidazo[4,5,c]pyridin-4-yloxymethyl)-1-aza-bicyclo[2.2.2]octane]	2.65	–
c1ccc(Cn2cnc3c(OC4CN5CCC4CC5)nccc32)cc1 (single isomer, unassigned; (+)) [Example 6, (+)-3-(1-Benzyl-1H-imidazo[4,5-c]pyridin-4-yloxy)-1-aza-bicyclo[2.2.2]octane]	13.4	–
CCN1CCCC(O)(c2nc3c(Cl)nccc3n2Cc2ccccc2)C1 (stereo not drawn) [Example 15, 3-(1-Benzyl-4-chloro-1H-imidazo[4,5-c]pyridin-2-yl)-1-ethyl-piperidin-3-ol]	–	Ki ([1]; read-out: ml 3H QNB Binding in CHO cells Ki): 9.3 µM
